Data reported in patent US20060074243A1, “Hydroxamic acid and amide compounds and their use as protease inhibitors” (Pharmacia Corporation, priority 2002, published 2006).

Biological target: T1, Human recombinant MMP-13 (Homo sapiens, UniProt P45452)
T1 construct: made in house; host or cells: baculovirus / insect cells
Experiment: In vitro MMP inhibition analysis (fluorogenic peptide substrate cleavage), Ki
Assay type: biochemical
Conditions: Table 2
Method: Several compounds and salts were analyzed in an in vitro assay to determine their ability to inhibit the MMP cleavage of peptide substrates. Inhibition constant (Ki) were calculated from the assayed compound-MMP interactions.
Human recombinant MMP-1, MMP-2, MMP-9, MMP-13, and MMP-14 were used in this assay. All enzymes were prepared in Assignee's laboratories following usual laboratory procedures. Protocols for the preparation and use of these enzymes are available in the scientific literature. See, e.g., Enzyme Nomenclature (Academic Press, San Diego, Calif., 1992) (and the citations therein). See also, Frije et al., J. Biol. Chem., 26(24), 16766-73 (1994).
The MMP-13 was obtained as a proenzyme from a full-length cDNA clone using baculovirus, as described by V. A. Luckow, “Insect Cell Expression Technology,” Protein Engineering: Principles and Practice, pp. 183-218 (edited by J. L. Cleland et al., Wiley-Liss, Inc., 1996). The expressed proenzyme was first purified over a heparin agarose column, and then over a chelating zinc chloride column. The proenzyme was then activated by APMA for use in the assay. Further details on baculovirus expression systems may be found in, for example, Luckow et al., J. Virol., 67, 4566-79 (1993). See also, O'Reilly et al, Baculovirus Expression Vectors: A Laboratory Manual (W.H. Freeman and Co., New York, N.Y., 1992). See also, King et al., The Baculovirus Expression System: A Laboratory Guide (Chapman & Hall, London, England, 1992).
All MMPs were activated using 4-aminophenylmercuric acetate (“APMA”, Sigma Chemical, St. Louis, Mo.) or trypsin. MMP-9 also was activated using human recombinant MMP-3 (purified in Assignee's laboratory following standard cloning and purification techniques).
The following fluorogenic, methoxycoumarin-containing polypeptide substrate (I) was used in the MMP inhibition assays: MCA-ArgProLeuGlyLeuDpaAlaArgGluArgNH2 (I) “MCA” is 7-methoxycoumarin-4-yl acetyl. Substrate (I) was prepared Assignee's laboratory. In the absence of MMP inhibitory activity, the substrate is cleaved at the Gly-Leu peptide bond. This cleavage separates the highly fluorogenic peptide from the 2,4-dinitrophenyl quencher, thus resulting in increase of fluorescent intensity.
The stock solutions of the assayed compounds and salts were prepared in […] (DMSO). These stock solutions were diluted in Buffer A (100 mM Tris-HCl, 100 mM NaCl, 10 mM CaCl2, 0.05% polyoxyethylene 23 lauryl ether, pH 7.5) to obtain solutions with different compound concentrations, i.e., assay solutions with different concentrations of the assayed […] compound. The experiment controls contained the same amount of Buffer A/DMSO as the assayed sample, but contained none of the tested compound or salt.
The assays from which the Ki determinations were made were performed as follows. The assayed compound samples were incubated in separate wells of untreated white polystyrene plates (Nunc Nalgene International, Rochester, N.Y.), and analyzed on a Tecan SpectraFlour Plus plate reader. The excitation wavelength was 330 nm, and the emission wavelength—420 nm. All samples (assayed compounds and controls) were incubated in separate plate wells at room temperature for 1 hr in the presence of 4 μM of MMP substrate (I). In the absence of MMP inhibitory activity, substrate (I) was cleaved at the Gly-Leu bond resulting in an increase of relative fluorescence. Inhibition was observed as a reduced rate of this increase in relative fluorescence. […] This protocol is a modification of method by Knight et al., FEBS Lett., 296(3), 263-266 (1992). Apparent inhibitory constants were determined by non-linear regression of reaction velocity as a function of inhibitor and enzyme concentration using Morrison's equation, as described by Kuzmic, Anal. Biochem. 286, 45-50 (2000). […]

| Ki [nM] | SMILES |
| --- | --- |
| 5.22 | CCCCc1ccc(-c2ccc(S(=O)(=O)C3(C(=O)NO)CCN(CC)CC3)cc2)cn1 [Example 139] |
| 0.058 | CCCCc1ccc(-c2ccc(S(=O)(=O)C3(C(=O)NO)CCN(CC)CC3)cc2)nc1 [Example 140] |
| 0.012 | O=C(NO)C1(S(=O)(=O)c2ccc(-c3ccc(-c4ccncc4)cc3)cc2)CCOCC1 [Example 141] |
| 22.5 | O=C(NO)C1(S(=O)(=O)c2ccc(-c3cnc(CCC(F)(F)C(F)(F)F)nc3)cc2)CCOCC1 [Example 142] |
| 0.007 | O=C(NO)C1(S(=O)(=O)c2ccc(-c3ccc(OCCCC(F)(F)F)cn3)cc2)CCOCC1 [Example 144] |
| 0.26 | O=C(NO)C1(S(=O)(=O)c2ccc(-c3ccc(-c4ccc(OC(F)(F)F)cc4)cn3)cc2)CCN(C2CC2)CC1 [Example 145] |
| 0.15 | CN1CCC(C(=O)NO)(S(=O)(=O)c2ccc(-c3ccc(OC(F)(F)C(F)F)cc3)cc2)CC1 [Example 146] |
| 2.59 | CCN1CCC(C(=O)NO)(S(=O)(=O)c2ccc(-c3noc(-c4ccc(F)cc4)n3)cc2)CC1 [Example 147] |
| 5.7 | CCN1CCC(C(=O)NO)(S(=O)(=O)c2ccc(-c3noc(-c4ccncc4)n3)cc2)CC1 [Example 148] |
| 0.45 | CCN1CCC(C(=O)NO)(S(=O)(=O)c2ccc(-c3noc(-c4ccc(C(F)(F)F)cc4)n3)cc2)CC1 [Example 149] |
| 0.12 | O=C(NO)C1(S(=O)(=O)c2ccc(-c3ccc(-c4ccccc4F)cn3)cc2)CCN(C2CC2)CC1 [Example 150] |
| 0.05 | O=C(NO)C1(S(=O)(=O)c2ccc(-c3ccc(-c4ccccc4)cn3)cc2)CCN(C2CC2)CC1 [Example 151] |
| 0.05 | COCCN1CCC(C(=O)NO)(S(=O)(=O)c2ccc(-c3ccc(-c4ccccc4)cc3)cc2)CC1 [Example 152] |
| 0.15 | O=C(NO)C1(S(=O)(=O)c2ccc(-c3ccc(-c4ccccc4)cc3)cc2)CCN(C2CC2)CC1 [Example 153] |
| 0.12 | O=C(NO)C1(S(=O)(=O)c2ccc(-c3cnc(OCC(F)(F)C(F)(F)F)cn3)cc2)CCOCC1 [Example 154] |
| 0.17 | CCN1CCC(C(=O)NO)(S(=O)(=O)c2ccc(-c3ccc(-c4csc(C)n4)cc3)cc2)CC1 [Example 155] |
| 0.31 | O=C(NO)C1(S(=O)(=O)c2ccc(-c3cnc(OCC(F)(F)C(F)(F)F)cn3)cc2)CCN(C2CC2)CC1 [Example 156] |
| 0.26 | COCCN1CCC(C(=O)NO)(S(=O)(=O)c2ccc(-c3cnc(OCC(F)(F)C(F)(F)F)cn3)cc2)CC1 [Example 157] |
| 0.02 | O=CN1CCC(C(=O)NO)(S(=O)(=O)c2ccc(-c3ccc(CCCC(F)(F)F)cn3)cc2)CC1 [Example 159] |
| 0.7 | O=C(NO)C1(S(=O)(=O)c2ccc(-c3cnc(-c4cccs4)cn3)cc2)CCOCC1 [Example 160] |
| 0.07 | O=C(NO)C1(S(=O)(=O)c2ccc(-c3ccc(CCC(F)(F)F)cc3)cc2)CCOCC1 [Example 161] |
| 0.95 | O=C(NO)C1(S(=O)(=O)c2ccc(-c3cnc(C4CCCC4)cn3)cc2)CCOCC1 [Example 162] |
| 0.011 | CCOc1ccc(-c2ccc(S(=O)(=O)C3(C(=O)NO)CCOCC3)cc2)cc1 [Example 163] |
| 0.09 | COCC#Cc1cnc(-c2ccc(S(=O)(=O)C3(C(=O)NO)CCOCC3)cc2)cn1 [Example 164] |
